Data on two compounds can be found in patent EP0774454A1, “Excitatory amino acid receptor antagonists” (ELI LILLY AND COMPANY, priority 1995, dated 1997).

The test system of this test is metabotropic glutamate receptors. The test is described as follows: displacement of 1S,3R-ACPD-sensitive [3H]glutamate binding to rat brain cell membranes (crude membranes of rat forebrain). How it is done: The binding of [^3H]glutamate was conducted with crude membranes of rat forebrain as described by Schoepp and True, Neuroscience Lett., 145, 100-104 (1992) and Wright et al., J. Neurochemistry 63, 938-945, 1994.

The structures appear in SMILES notation. pIC50: −log10 of the molar value.

As usually defined, the pIC50 is −log10 of the IC50, conventionally taken in molar units.

In the case of `N[C@]1(C(=O)O)C[C@@H](SCc2ccco2)[C@@H]2[C@@H](C(=O)O)[C@@H]21` (racemic) [Example 8, 1SR,2RS,4RS,5SR,6SR-2-Amino-4-((2-furanylmethyl)thio)bicyclo[3.1.0]hexane-2,6-dicarboxylic acid], the “affinity for metabotropic glutamate receptors (result in words)” value was “essentially inactive”.
In turn, `NC1(C(=O)O)CC(Sc2ccccc2)C2C(C(=O)O)C21` (stereo not drawn) [Example 1, 1SR,2RS,4SR,5SR,6SR-2-Amino-4-(phenylthio)-bicyclo[3.1.0]hexane-2,6-dicarboxylic acid] showed a negative logarithm of the IC50 (pIC50) of 6.62.
